# According to ChEMBL document CHEMBL1135585, “Mixed steroidal 1,2,4,5-tetraoxanes: antimalarial and antimycobacterial activity” (J Med Chem, 2002):
# Columns and labels:
# [1] = test system: Plasmodium falciparum; assay: microbe, parasite or virus in culture
# Description: (§1) In vitro inhibitory activity against chloroquine-sensitive Plasmodium falciparum African D6
# [2] = test system: Plasmodium falciparum; assay: microbe, parasite or virus in culture; remark: listed apart in the source
# Description: (§2) In vitro inhibitory activity against chloroquine-resistant Plasmodium falciparum W2 Indochina
# [3] = test system: Plasmodium falciparum
# Description: as §2
# [4] = test system: Plasmodium falciparum; remark: listed apart in the source
# Description: as §1
SMILES,IC50 [1],IC50 [2],IC50 [3],IC50 [4]
CC(=O)O[C@H]1C[C@H]2[C@@H]([C@H](OC(C)=O)C[C@@H]3CC4(CC[C@@]32C)OOC2(CCCCC2)OO4)[C@@H]2CCC(C(C)CCC(N)=O)[C@@]12C (stereo partly drawn),0.0118 µM,0.00474 µM,,
CCNC(=O)CCC(C)C1CC[C@H]2[C@@H]3[C@H](OC(C)=O)C[C@@H]4CC5(CC[C@]4(C)[C@H]3C[C@H](OC(C)=O)[C@]12C)OOC1(CCCCC1C)OO5 (stereo partly drawn),0.0126 µM,0.00697 µM,,
CCNC(=O)CCC(C)C1CC[C@H]2[C@@H]3[C@H](OC(C)=O)C[C@@H]4CC5(CC[C@]4(C)[C@H]3C[C@H](OC(C)=O)[C@]12C)OOC1(CCC(CC)CC1)OO5 (mixture of isomers; 26),,,0.0181 µM,0.0231 µM
COC(=O)CCC(C)C1CC[C@H]2[C@@H]3[C@H](OC(C)=O)C[C@@H]4CC5(CC[C@]4(C)[C@H]3C[C@H](OC(C)=O)[C@]12C)OOC1(CCCCC1C)OO5 (stereo partly drawn),0.027 µM,0.0156 µM,,
CCCNC(=O)CCC(C)C1CC[C@H]2[C@@H]3[C@H](OC(C)=O)C[C@@H]4CC5(CC[C@]4(C)[C@H]3C[C@H](OC(C)=O)[C@]12C)OOC1(CCCCC1)OO5 (stereo partly drawn),0.0148 µM,0.0068 µM,,
COC(=O)CCC(C)C1CC[C@H]2[C@@H]3[C@H](OC(C)=O)C[C@@H]4CC5(CC[C@]4(C)[C@H]3C[C@H](OC(C)=O)[C@]12C)OOC1(OO5)C(C)CCCC1C (stereo partly drawn),0.0312 µM,0.357 µM,,
CC(=O)O[C@H]1C[C@H]2[C@@H]([C@H](OC(C)=O)C[C@@H]3CC4(CC[C@@]32C)OOC2(CCCCC2C)OO4)[C@@H]2CCC(C(C)CCC(=O)O)[C@@]12C (stereo partly drawn),0.0676 µM,0.0375 µM,,
CNC(=O)CCC(C)C1CC[C@H]2[C@@H]3[C@H](OC(C)=O)C[C@@H]4CC5(CC[C@]4(C)[C@H]3C[C@H](OC(C)=O)[C@]12C)OOC1(CCC(C)CC1)OO5 (stereo in doubt; 17),,,0.0119 µM,0.0167 µM
COC(=O)CCC(C)C1CC[C@H]2[C@@H]3[C@H](OC(C)=O)C[C@@H]4CC5(CC[C@]4(C)[C@H]3C[C@H](OC(C)=O)[C@]12C)OOC1(CCC(C(C)(C)C)CC1)OO5 (stereo in doubt; 3l),,0.0278 µM,,0.0519 µM
COC(=O)CCC(C)C1CC[C@H]2[C@@H]3[C@H](OC(C)=O)C[C@@H]4CC5(CC[C@]4(C)[C@H]3C[C@H](OC(C)=O)[C@]12C)OOC1(CCCC1)OO5 (stereo partly drawn),0.0391 µM,0.0277 µM,,
COC(=O)CCC(C)C1CC[C@H]2[C@@H]3[C@H](OC(C)=O)C[C@@H]4CC5(CC[C@]4(C)[C@H]3C[C@H](OC(C)=O)[C@]12C)OOC1(CCC(C(C)(C)C)CC1)OO5 (stereo in doubt; 3k),,,0.0527 µM,0.107 µM
COC(=O)CNC(=O)CCC(C)C1CC[C@H]2[C@@H]3[C@H](OC(C)=O)C[C@@H]4CC5(CC[C@]4(C)[C@H]3C[C@H](OC(C)=O)[C@]12C)OOC1(CCCCC1)OO5 (stereo partly drawn),0.022 µM,0.0108 µM,,
CCNC(=O)CCC(C)C1CC[C@H]2[C@@H]3[C@H](OC(C)=O)C[C@@H]4CC5(CC[C@]4(C)[C@H]3C[C@H](OC(C)=O)[C@]12C)OOC1(CCC(C)CC1)OO5 (stereo in doubt; 18),,,0.00993 µM,0.0156 µM
CCC1CCC2(CC1)OOC1(CC[C@@]3(C)[C@H](C[C@@H](OC(C)=O)[C@@H]4[C@@H]3C[C@H](OC(C)=O)[C@]3(C)C(C(C)CCC(N)=O)CC[C@@H]43)C1)OO2 (mixture of isomers; 20),,,0.0107 µM,0.0084 µM
CCC1CCC2(CC1)OOC1(CC[C@@]3(C)[C@H](C[C@@H](OC(C)=O)[C@@H]4[C@@H]3C[C@H](OC(C)=O)[C@]3(C)C(C(C)CCC(N)=O)CC[C@@H]43)C1)OO2 (mixture of isomers; 24),,0.0125 µM,,0.0311 µM
CCC1CCC2(CC1)OOC1(CC[C@@]3(C)[C@H](C[C@@H](OC(C)=O)[C@@H]4[C@@H]3C[C@H](OC(C)=O)[C@]3(C)C(C(C)CCC(=O)O)CC[C@@H]43)C1)OO2 (stereo in doubt; 4j),,,0.0144 µM,0.00983 µM
CC(=O)O[C@H]1C[C@H]2[C@@H]([C@H](OC(C)=O)C[C@@H]3CC4(CC[C@@]32C)OOC2(CCC(C)CC2)OO4)[C@@H]2CCC(C(C)CCC(N)=O)[C@@]12C (stereo in doubt; 16),,,0.0141 µM,0.02 µM
CCC1CCC2(CC1)OOC1(CC[C@@]3(C)[C@H](C[C@@H](OC(C)=O)[C@@H]4[C@@H]3C[C@H](OC(C)=O)[C@]3(C)C(C(C)CCC(=O)NC)CC[C@@H]43)C1)OO2 (mixture of isomers; 25),,,0.00615 µM,0.0279 µM
CC(=O)O[C@H]1C[C@H]2[C@@H]([C@H](OC(C)=O)C[C@@H]3CC4(CC[C@@]32C)OOC2(CCC(C)CC2)OO4)[C@@H]2CCC(C(C)CCC(=O)O)[C@@]12C (stereo in doubt; 4h),,,0.0177 µM,0.0311 µM
CCCNC(=O)CCC(C)C1CC[C@H]2[C@@H]3[C@H](OC(C)=O)C[C@@H]4CC5(CC[C@]4(C)[C@H]3C[C@H](OC(C)=O)[C@]12C)OOC1(CCC(CC)CC1)OO5 (mixture of isomers; 27),,,0.123 µM,0.0902 µM
"CCC1CCC2(CC1)OOC1(CC[C@@]3(C)[C@H](C[C@@H](OC(C)=O)[C@@H]4[C@@H]3C[C@H](OC(C)=O)[C@]3(C)C(C(C)CCC(=O)OC)CC[C@@H]43)C1)OO2 (single isomer, unassigned; 3j)",,0.0283 µM,,0.0177 µM
CCCNC(=O)CCC(C)C1CC[C@H]2[C@@H]3[C@H](OC(C)=O)C[C@@H]4CC5(CC[C@]4(C)[C@H]3C[C@H](OC(C)=O)[C@]12C)OOC1(CCC(C)CC1)OO5 (stereo in doubt; 19),,,0.083 µM,0.0849 µM
CCC1CCC2(CC1)OOC1(CC[C@@]3(C)[C@H](C[C@@H](OC(C)=O)[C@@H]4[C@@H]3C[C@H](OC(C)=O)[C@]3(C)C(C(C)CCC(=O)NC)CC[C@@H]43)C1)OO2 (mixture of isomers; 21),,0.00782 µM,,0.00721 µM
"CCC1CCC2(CC1)OOC1(CC[C@@]3(C)[C@H](C[C@@H](OC(C)=O)[C@@H]4[C@@H]3C[C@H](OC(C)=O)[C@]3(C)C(C(C)CCC(=O)OC)CC[C@@H]43)C1)OO2 (single isomer, unassigned; 3i)",,,0.0155 µM,0.00673 µM
CCCNC(=O)CCC(C)C1CC[C@H]2[C@@H]3[C@H](OC(C)=O)C[C@@H]4CC5(CC[C@]4(C)[C@H]3C[C@H](OC(C)=O)[C@]12C)OOC1(CCC(CC)CC1)OO5 (mixture of isomers; 23),,,0.00451 µM,0.00834 µM
COC(=O)CCC(C)C1CC[C@H]2[C@@H]3[C@H](OC(C)=O)C[C@@H]4CC5(CC[C@]4(C)[C@H]3C[C@H](OC(C)=O)[C@]12C)OOC1(CCC(C)CC1)OO5 (stereo in doubt; 3h),,,0.0132 µM,0.0246 µM
OC(c1cc(C(F)(F)F)nc2c(C(F)(F)F)cccc12)C1CCCCN1 (stereo not drawn) [MEFLOQUINE],0.0283 µM,,,
